From patent US20220193384A1, “CUTANEOUS DEVICE FOR STORING AND RELEASING MOLECULES, AND CORRESPONDING METHOD” (priority 2019, published 2022)
Values after ≈ are worked out from the molar mass of the structure shown. Read-outs that look alike come from different tables or passages of the source.

Key:
[1] = C57BL/6, mouse, 100 μg mL^−1, pH 7.4
[2] = tested on: Gram-negative E. coli K12; assay: Minimum inhibitory concentration (MIC); type: cell-based; details: Escherichia coli
[3] = Skin permeation, static Franz diffusion cell, passive and electrothermally activated patch; details: stock solution 100 μg mL^−1 for loading, mouse skin
[4] = drug passed through and remained inside the excised skin; cited from earlier work
blood glucose level = assay: In vivo blood glucose level after insulin injection or insulin-loaded electrothermal patch; details: IP or subcutaneous injection of insulin (0.032 UI, 1.12 μg), C57BL/6 mice
[5] = electrothermal activation 1 V, 10 min

| Molecule | Flux active [1] [μg cm^−2 h^−1] | Active, amount of drug permeated [1] [µg/mL] | Flux passive [1] [μg cm^−2 h^−1] | Passive, amount of drug permeated [1] [µg/mL] | further results |
| --- | --- | --- | --- | --- | --- |
| CN(C)C(=N)N=C(N)N [metformin] | 4.68 | – | – | – | – |
| CC1(C)S[C@@H]2[C@H](NC(=O)[C@H](N)c3ccccc3)C(=O)N2[C@H]1C(=O)O [ampicillin] | – | – | – | – | MIC [2]: 10 ± 0.5 µg/mL (≈ 28.6 µM) |
| CO/N=C(\C(=O)N[C@@H]1C(=O)N2C(C(=O)[O-])=C(C[N+]3(C)CCCC3)CS[C@H]12)c1csc(N)n1 [cefepime] | – | – | – | – | MIC [2]: 10 ± 0.5 µg/mL (≈ 20.8 µM); Active, amount of drug permeated [3, 5]: 18.3 µg/mL; Flux active [3, 5]: 4.67 μg cm^−2 h^−1; Flux passive ([3]; passive, no activation): 0 μg cm^−2 h^−1; Passive, amount of drug permeated ([3]; passive, no activation): 0 µg/mL |
| COc1cccc2c1C(=O)c1c(O)c3c(c(O)c1C2=O)C[C@@](O)(C(=O)CO)C[C@@H]3O[C@H]1C[C@H](N)[C@H](O)[C@H](C)O1 [doxorubicin] | 6.61 | 62 | 0 | 0 | – |
| Cn1c(=O)c2c(ncn2C)n(C)c1=O [caffeine] | 15.09 | 58 | 7.18 | 28 | – |
| O=c1[nH]cc(F)c(=O)[nH]1 [5-fluorouracil] | – | 23.1 | 0 | 0 | Flux of 5-fluorouracil reported by Xie et al. [4]: 1.64 μg cm^−2 h^−1 |
| insulin | – | – | – | – | Time to therapeutic effect (change in blood glucose level) (blood glucose level): about 15 min |
